Results published in PMC11995211, “Design, Synthesis, and Evaluation of a New Fluorescent Ligand for the M2 Muscarinic Acetylcholine Receptor” (ACS Medicinal Chemistry Letters, 2025).

Experiments:
M2R [1] = conditions: Figure 1, M2R antagonists; published data, reference numbers not given; cited from earlier work
M1 = conditions: Figure 1; published data, reference numbers not given; cited from earlier work
M3 = conditions: Figure 1; published data, reference numbers not given; cited from earlier work
M5 = conditions: Figure 1; published data, reference numbers not given; cited from earlier work
[2] = literature statement, reference numbers not given; cited from earlier work
M4 = conditions: Figure 1; published data, reference numbers not given; cited from earlier work
M2R [3] = target: T1, M2R (Homo sapiens, UniProt P08172); experiment: BRET-based TRUPATH GoA activation assay, antagonism of carbachol-induced G protein activation; format: cell-based; conditions: for mode of antagonism of carbachol-induced G protein activation: TRUPATH GoA assay
T1 sequence (P08172 1-466): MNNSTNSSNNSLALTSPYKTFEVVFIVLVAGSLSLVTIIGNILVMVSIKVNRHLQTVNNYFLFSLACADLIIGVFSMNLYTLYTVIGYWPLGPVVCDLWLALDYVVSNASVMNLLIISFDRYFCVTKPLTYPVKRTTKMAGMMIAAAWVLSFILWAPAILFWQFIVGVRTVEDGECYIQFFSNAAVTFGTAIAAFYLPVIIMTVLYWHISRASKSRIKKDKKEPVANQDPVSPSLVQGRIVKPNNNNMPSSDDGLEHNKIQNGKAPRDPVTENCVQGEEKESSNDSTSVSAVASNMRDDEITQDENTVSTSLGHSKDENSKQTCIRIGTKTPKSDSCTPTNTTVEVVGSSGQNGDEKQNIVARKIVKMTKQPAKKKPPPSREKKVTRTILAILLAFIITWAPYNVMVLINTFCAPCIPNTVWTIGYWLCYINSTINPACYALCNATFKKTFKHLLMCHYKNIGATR

hM1R = target: T2, hM1R (Homo sapiens, UniProt P11229); experiment: Radioligand competition binding, [3H]-scopolamine (N-methyl), CHO cell membranes, hM1R; conditions: mean ± SD, n = 3; membranes from CHO cells transfected with hM1R; read-out: Receptor Ki M1
T2 construct: expressed in transfected cells; host or cells: CHO cell membranes
T2 sequence (P11229 1-460): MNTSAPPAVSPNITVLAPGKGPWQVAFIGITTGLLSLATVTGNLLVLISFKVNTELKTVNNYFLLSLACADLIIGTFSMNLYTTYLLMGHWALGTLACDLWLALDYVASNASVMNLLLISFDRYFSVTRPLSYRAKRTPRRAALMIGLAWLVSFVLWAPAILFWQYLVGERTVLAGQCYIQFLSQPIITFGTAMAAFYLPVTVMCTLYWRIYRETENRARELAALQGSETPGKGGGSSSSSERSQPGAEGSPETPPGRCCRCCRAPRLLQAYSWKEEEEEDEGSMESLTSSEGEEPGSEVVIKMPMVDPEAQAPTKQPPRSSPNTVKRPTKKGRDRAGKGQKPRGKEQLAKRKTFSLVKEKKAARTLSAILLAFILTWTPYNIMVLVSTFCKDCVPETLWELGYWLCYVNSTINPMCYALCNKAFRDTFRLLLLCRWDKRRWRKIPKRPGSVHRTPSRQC

hM4R = target: T3, hM4R (Homo sapiens, UniProt P08173); experiment: Radioligand competition binding, [3H]-scopolamine (N-methyl), CHO cell membranes, hM4R; conditions: mean ± SD, n = 3; membranes from CHO cells transfected with hM4R; read-out: Receptor Ki M4
T3 construct: expressed in transfected cells; host or cells: CHO cell membranes
T3 sequence (P08173 1-479): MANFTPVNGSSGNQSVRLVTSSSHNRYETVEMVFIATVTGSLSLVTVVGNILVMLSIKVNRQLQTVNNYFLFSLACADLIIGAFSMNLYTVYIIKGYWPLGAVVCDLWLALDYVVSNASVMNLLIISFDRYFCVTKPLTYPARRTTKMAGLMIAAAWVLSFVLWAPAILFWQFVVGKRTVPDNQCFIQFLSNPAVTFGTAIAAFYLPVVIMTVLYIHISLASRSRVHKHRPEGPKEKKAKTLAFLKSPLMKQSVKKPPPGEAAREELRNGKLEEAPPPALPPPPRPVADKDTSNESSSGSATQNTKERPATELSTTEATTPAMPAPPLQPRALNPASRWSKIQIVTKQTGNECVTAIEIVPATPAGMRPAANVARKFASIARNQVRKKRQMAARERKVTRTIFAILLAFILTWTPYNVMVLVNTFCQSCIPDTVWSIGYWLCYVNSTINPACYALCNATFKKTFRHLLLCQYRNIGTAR

hM5R = target: T4, hM5R (Homo sapiens, UniProt P08912); experiment: Radioligand competition binding, [3H]-scopolamine (N-methyl), CHO cell membranes, hM5R; conditions: mean ± SD, n = 3; membranes from CHO cells transfected with hM5R; read-out: Receptor Ki M5
T4 construct: expressed in transfected cells; host or cells: CHO cell membranes
T4 sequence (P08912 1-532): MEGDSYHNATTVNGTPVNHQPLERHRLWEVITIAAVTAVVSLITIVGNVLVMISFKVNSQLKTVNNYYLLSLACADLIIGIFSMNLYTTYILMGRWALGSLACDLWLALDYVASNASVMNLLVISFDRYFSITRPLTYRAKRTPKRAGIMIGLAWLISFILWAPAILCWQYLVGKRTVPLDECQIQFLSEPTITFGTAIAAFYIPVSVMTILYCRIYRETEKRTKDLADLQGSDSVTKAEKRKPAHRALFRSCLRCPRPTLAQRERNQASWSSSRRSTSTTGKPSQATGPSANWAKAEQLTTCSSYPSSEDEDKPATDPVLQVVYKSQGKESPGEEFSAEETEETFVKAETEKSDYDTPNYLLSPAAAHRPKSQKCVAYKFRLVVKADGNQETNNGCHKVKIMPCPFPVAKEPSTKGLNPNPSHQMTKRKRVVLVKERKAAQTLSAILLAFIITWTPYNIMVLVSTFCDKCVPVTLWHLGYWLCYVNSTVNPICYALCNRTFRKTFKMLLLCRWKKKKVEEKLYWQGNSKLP

hM3R = target: T5, hM3R (Homo sapiens, UniProt P20309); experiment: Radioligand competition binding, [3H]-scopolamine (N-methyl), CHO cell membranes, hM3R; conditions: mean ± SD, n = 3; membranes from CHO cells transfected with hM3R; read-out: Receptor Ki M3
T5 construct: expressed in transfected cells; host or cells: CHO cell membranes
T5 sequence (P20309 whole entry): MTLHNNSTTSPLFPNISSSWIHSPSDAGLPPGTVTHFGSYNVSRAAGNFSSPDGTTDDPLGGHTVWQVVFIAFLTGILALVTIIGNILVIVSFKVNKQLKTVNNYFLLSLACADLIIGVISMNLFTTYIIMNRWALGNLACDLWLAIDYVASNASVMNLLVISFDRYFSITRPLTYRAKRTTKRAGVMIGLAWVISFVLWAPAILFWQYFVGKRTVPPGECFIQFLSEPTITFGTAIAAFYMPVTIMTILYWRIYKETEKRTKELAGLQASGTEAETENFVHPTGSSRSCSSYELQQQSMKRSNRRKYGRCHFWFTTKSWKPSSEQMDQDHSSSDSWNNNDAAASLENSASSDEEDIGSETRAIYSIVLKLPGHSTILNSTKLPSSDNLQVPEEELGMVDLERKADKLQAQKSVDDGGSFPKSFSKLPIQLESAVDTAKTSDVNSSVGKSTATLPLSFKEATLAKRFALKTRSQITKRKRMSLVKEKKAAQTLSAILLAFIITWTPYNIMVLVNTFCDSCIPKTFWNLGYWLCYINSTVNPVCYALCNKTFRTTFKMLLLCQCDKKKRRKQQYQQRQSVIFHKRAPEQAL

hM2R = target: T6, hM2R (Homo sapiens, UniProt P08172); experiment: Radioligand competition binding, [3H]-scopolamine (N-methyl), CHO cell membranes, hM2R; conditions: mean ± SD, n = 3; membranes from CHO cells transfected with hM2R; read-out: Receptor Ki M2
T6 construct: expressed in transfected cells; host or cells: CHO cell membranes
T6 sequence (P08172 1-466): T1 sequence (P08172 1-466)

| Ki (hM1R) | Ki (hM4R) | Ki (hM5R) | Ki (hM3R) | SMILES | Ki (M2R [1]) | M2R selectivity M1/M2 (M1) | mode of antagonism of carbachol-induced G protein activation (M2R [3]) | other results |
| --- | --- | --- | --- | --- | --- | --- | --- | --- |
|  |  |  |  | CCCC(C)(C)C(=O)N(CC)CCCC1CCN(CC(=O)N2c3ccc(Cl)cc3C(=O)Nc3cccnc32)CC1 [Compound 1] | 30.2 nM | 35 |  |  |
|  |  |  |  | CCN(CC)CC1CCCCN1CC(=O)N1c2ccccc2C(=O)Nc2cccnc21 (stereo not drawn) [Compound 2] | 105 nM |  |  |  |
|  |  |  |  | Cc1ccccc1C(=O)N1CCC(N2CCC(Cc3ccc(S(=O)(=O)c4ccc5c(c4)OCO5)cc3)CC2)CC1 [Compound 3] | 0.02 nM | 1400 |  | M2R selectivity M3/M2 (M3): 730; M2R selectivity M5/M2 (M5): 280; pharmacokinetics [2]: poor; M2R selectivity M4/M2 (M4): 37 |
| 143 ± 11 nM | 7.4 ± 0.6 nM | 8.6 ± 0.7 nM | 496 ± 36 nM | NCCOCCOCCNc1ccccc1C(=O)N1CCC(N2CCC(Cc3ccc(S(=O)(=O)c4cccc(Cl)c4)cc3)CC2)CC1 [Compound 30] |  |  |  |  |
| 113 ± 8 nM | 6.2 ± 0.9 nM | 8.5 ± 0.9 nM | 373 ± 38 nM | NCCOCCOCCC(=O)NCCOCCOCCNc1ccccc1C(=O)N1CCC(N2CCC(Cc3ccc(S(=O)(=O)c4cccc(Cl)c4)cc3)CC2)CC1.O=C(O)C(F)(F)F [Compound 32] |  |  | competitive antagonists | Ki (hM2R): 1.1 ± 0.1 nM; Log(IC50) ± SD (M), carbachol-induced GoA protein activation (M2R [3]; log10 of IC50 (negative values), HEK 293T, compound 20 min, then 10 μM carbachol 15 min, Hill-slope = 1, n = 3): –6.97 ± 0.12 M |

| SMILES | Ki (hM1R) | Ki (hM4R) | Ki (hM5R) | Ki (hM3R) | Ki (M2R [1]) | M2R selectivity M1/M2 (M1) | mode of antagonism of carbachol-induced G protein activation (M2R [3]) | other results |
| --- | --- | --- | --- | --- | --- | --- | --- | --- |
| Nc1ccccc1C(=O)N1CCC(N2CCC(Cc3ccc(S(=O)(=O)c4cccc(Cl)c4)cc3)CC2)CC1 [Compound 28] | 425 ± 32 nM | 9.4 ± 1.1 nM |  |  |  |  | competitive antagonists | oral bioavailability [2]: good |
